Measured values from US20230365537A1, “POLO LIKE KINASE 4 INHIBITORS” (ORIC Pharmaceuticals, Inc., priority 2021, published 2023).

How the values were obtained:
human recombinant PLK4 = human recombinant PLK4 (Homo sapiens (Human), UniProt O00444); assay: PLK4 Biochemical Assay (ADP-Glo); settings: 0.5 nM PLK4, 8.0 µM ATP, 4.7 µM MBP, 6 hours at RT
How it was run: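 Luminescent ADP-Glo detection quantified ADP production, with ATP depletion for 40 min and detection for 30 min at room temperature. Compound and PLK4 (1.0 nM stock addition) were preincubated 15 min in HEPES pH 7.5 buffer containing MgCl2, EGTA, DTT, Brij-35 and BSA. IC50 values were obtained by four-parameter nonlinear regression.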

[1] = biological target: human recombinant Aurora A (Homo sapiens (Human), UniProt O14965); assay: Aurora A Kinase Biochemical Assay (ADP-Glo); settings: ratio of Aurora A IC50 to PLK4 IC50 (selectivity)
human recombinant Aurora A, sequence (O14965 whole entry): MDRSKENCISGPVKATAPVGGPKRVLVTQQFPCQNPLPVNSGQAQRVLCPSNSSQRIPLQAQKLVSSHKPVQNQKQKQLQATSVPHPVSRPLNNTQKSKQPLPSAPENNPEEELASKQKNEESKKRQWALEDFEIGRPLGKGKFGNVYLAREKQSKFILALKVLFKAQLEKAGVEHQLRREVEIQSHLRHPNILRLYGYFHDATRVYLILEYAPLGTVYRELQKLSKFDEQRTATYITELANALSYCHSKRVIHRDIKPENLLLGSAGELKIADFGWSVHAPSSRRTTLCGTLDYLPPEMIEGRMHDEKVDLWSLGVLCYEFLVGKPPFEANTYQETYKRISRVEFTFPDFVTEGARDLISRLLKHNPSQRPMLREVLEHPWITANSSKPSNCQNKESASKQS

[2] = biological target: human recombinant Aurora B (Homo sapiens (Human), UniProt Q96GD4); assay: Aurora B Kinase Biochemical Assay (ADP-Glo); settings: ratio of Aurora B IC50 to PLK4 IC50 (selectivity)
human recombinant Aurora B, sequence (Q96GD4 whole entry): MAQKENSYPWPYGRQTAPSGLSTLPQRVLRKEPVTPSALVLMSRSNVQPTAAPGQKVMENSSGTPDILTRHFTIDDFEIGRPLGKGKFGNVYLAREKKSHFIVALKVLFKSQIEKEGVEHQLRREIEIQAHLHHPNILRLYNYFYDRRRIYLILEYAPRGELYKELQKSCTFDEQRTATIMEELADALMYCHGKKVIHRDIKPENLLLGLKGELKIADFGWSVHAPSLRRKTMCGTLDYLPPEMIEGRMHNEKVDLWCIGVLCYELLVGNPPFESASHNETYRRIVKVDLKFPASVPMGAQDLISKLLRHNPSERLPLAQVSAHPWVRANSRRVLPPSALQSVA
How it was run: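 IC50 derived by four-parameter nonlinear fit of ADP-Glo luminescence (ADP produced). Compound was preincubated 15 min at RT with 20 nM recombinant human Aurora B, in 50 mM HEPES pH 7.5, 10 mM MgCl2, 1 mM EGTA, 1 mM DTT, 0.01% Brij-35/BSA.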

human recombinant PLK4, sequence (O00444 whole entry): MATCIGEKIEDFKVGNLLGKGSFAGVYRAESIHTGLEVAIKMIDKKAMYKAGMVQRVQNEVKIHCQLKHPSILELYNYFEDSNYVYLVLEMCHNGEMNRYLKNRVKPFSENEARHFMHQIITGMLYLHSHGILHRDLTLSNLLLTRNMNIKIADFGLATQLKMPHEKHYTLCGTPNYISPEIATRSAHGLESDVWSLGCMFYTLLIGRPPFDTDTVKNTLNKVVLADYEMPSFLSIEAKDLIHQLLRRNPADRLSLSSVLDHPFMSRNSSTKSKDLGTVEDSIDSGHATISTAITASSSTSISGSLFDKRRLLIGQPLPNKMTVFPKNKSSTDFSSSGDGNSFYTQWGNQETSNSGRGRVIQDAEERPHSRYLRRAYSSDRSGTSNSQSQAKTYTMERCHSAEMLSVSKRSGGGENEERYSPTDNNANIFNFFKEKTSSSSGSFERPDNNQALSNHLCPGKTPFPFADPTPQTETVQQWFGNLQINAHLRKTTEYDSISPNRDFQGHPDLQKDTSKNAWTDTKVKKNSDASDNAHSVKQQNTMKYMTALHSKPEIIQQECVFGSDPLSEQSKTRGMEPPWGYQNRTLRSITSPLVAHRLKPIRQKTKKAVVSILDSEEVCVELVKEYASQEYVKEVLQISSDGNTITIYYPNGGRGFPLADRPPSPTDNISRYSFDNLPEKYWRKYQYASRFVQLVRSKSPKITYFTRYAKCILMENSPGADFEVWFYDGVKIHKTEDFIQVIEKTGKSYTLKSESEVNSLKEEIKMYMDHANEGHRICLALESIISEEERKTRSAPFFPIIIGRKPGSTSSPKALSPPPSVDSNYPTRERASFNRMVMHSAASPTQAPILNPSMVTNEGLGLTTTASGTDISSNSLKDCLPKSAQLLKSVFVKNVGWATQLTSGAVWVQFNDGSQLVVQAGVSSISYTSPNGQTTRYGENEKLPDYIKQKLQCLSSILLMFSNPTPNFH

SMILES	IC50 (human recombinant PLK4) [nM]	[Aurora A IC50 (nM)]/[PLK4 IC50 (nM)] [1]	[Aurora B IC50 (nM)]/[PLK4 IC50 (nM)] [2]
COc1ccc2c(c1)[C@]1(C[C@H]1c1ccc3c(Nc4nc(N5CCOCC5)ncc4Cl)n[nH]c3c1)C(=O)N2 [Example 103, (1R,2S)-2-(3-{[5-chloro-2-(morpholin-4-yl)pyrimidin-4-yl]amino}-1H-indazol-6-yl)-5′-methozyspiro[cyclopropano-1,3′-indol]-2′(1′H)-one]	2.8	416.6667	977.1102
COc1ccc2c(c1)[C@]1(C[C@H]1c1ccc3c(Nc4nc(C5CNC5)cnc4OC)n[nH]c3c1)C(=O)N2 [Example 110, (1R,2S)-2-(3-{[6-(azetidin-3-yl)-3-methoxypyrazin-2-yl]amino}-1H-indazol-6-yl)-5′-methoxyspiro[cyclopropane-1,3′-indol]-2′(1′H)-one]	3.91	679.6315	232.1904
COc1ccc2c(c1)[C@]1(C[C@H]1c1ccc3c(Nc4cc(N5CC(O)C5)nc(C(C)C)n4)n[nH]c3c1)C(=O)N2 [Example 111, (1R,2S)-2-(3-{[6-(3-hydroxyazetidin-1-yi)-2-(propan-2,yl)pyrimidin-4-yl]amino}-1H-indazol-6-yl)-5′-inethoxyspiro[cyclopropane-1,3′-indol]-2′(1′H)-one]	1.53	234.7231	144.4951
COc1ccc2c(c1)[C@]1(C[C@H]1c1ccc3c(Nc4cc(C)nn4CC(F)F)n[nH]c3c1)C(=O)N2 [Example 112, (1R,2S)-2-(3-{[1-(2,2-difluoroethyl)-3-methyl-1H-pyrazol-5-yl]amino}-1H-indazol-6-yl)-5′-methoxyspiro[cyclopropane-1,3′-indol]-2′(1′H)-one]	23.7	197.5105	121.8987
COc1cnc(C)nc1Nc1n[nH]c2cc([C@@H]3C[C@@]34C(=O)Nc3cccc(F)c34)ccc12 [Example 129, (1R,2S)-4′-fluoro-2-{3-[(5-methoxy-2-methylpyrimidin-4-yl)amino]-1H-indazol-6-yl}spiro[cyclopropane-1,3′-indol]-2′(1′H)-one]	34.5	18.1054	17.1349
COc1cnc(C)nc1Nc1n[nH]c2cc([C@@H]3C[C@]34C(=O)Nc3cccc(F)c34)ccc12 [Example 130, (1S,2S)-4′-fluoro-2-{3-[(5-methoxy-2-methylpyrimidin-4-yl)amino]-1H-indazol-6-yl}spiro[cyclopropane-1,3′-indol]-2′(1′H)-one]	603	58.4811	60.1890
Cc1ncc(OC(F)F)c(Nc2n[nH]c3cc([C@@H]4C[C@@]45C(=O)Nc4ccc(F)cc45)ccc23)n1 [Example 135, (1R,2S)-2-(3-{[5-(difluoromethoxy)-2-methylpyrimidin-4-yl]amino}-1H-indazol-6-yl)-5′-fluorospiro[cyclopropane-1,3′-indol]-2′(1′H)-one]	70.8	28.3312	62.6112
COc1cnc(C)nc1Nc1n[nH]c2c(F)c([C@@H]3C[C@@]34C(=O)Nc3ccc(F)cc34)ccc12 [Example 142, (1R,2R)-5′-fluoro-2-{7-fluoro-3-[(5-methoxy-2-methylpyrimidin-4-yl)amino]-1H-indazol-6-yl}spiro[cyclopropane-1,3′-indol]-2′(1′H)-one]	21.5	13.818	26.308
COc1ccc2c(c1)[C@]1(C[C@H]1c1ccc3c(Nc4cc(C(C)C)nc(C)n4)n[nH]c3c1)C(=O)N2 [Example 151, (1R,2S)-5′-methoxy-2-(3-{[2-methyl-6-(propan-2-yl)pyrimidin-4-yl]amino}-1H-indazol-6-yl)spiro[cyclopropane-1,3′-indol]-2′(1′H)-one]	9.74	61.2440	96.3153
COc1ccc2c(c1)[C@]1(C[C@H]1c1ccc3c(Nc4ncc(C(F)(F)F)cc4OC)n[nH]c3c1)C(=O)N2 [Example 158, (1R,2S)-5′-methoxy-2-(3-{[3-methoxy-5-(trifluoromethyl)pyridin-2-yl]amino}-1H-indazol-6-yl)spiro[cyclopropane-1,3′-indol]-2′(1′H)-one]	8.59	704.9238	51.7286

More lines, in order of falling IC50 (human recombinant PLK4), values ahead:

IC50 (human recombinant PLK4) [nM]	[Aurora A IC50 (nM)]/[PLK4 IC50 (nM)] [1]	[Aurora B IC50 (nM)]/[PLK4 IC50 (nM)] [2]	SMILES
3180	7.4	9.6	COc1cnc(C)nc1Nc1n[nH]c2cc([C@@H]3C[C@]34C(=O)Nc3ccc(OC(F)(F)F)cc34)ccc12 [Example 139, (1S,2S)-2-{3-[(5-methoxy-2-methylpyrimidin-4-yl)amino]-1H-indazol-6-yl}-5′-(trifluoromethoxy)spiro[cyclopropane-1,3′-indol]-2′(1′H)-one]
2200	22.77	22.7686	COc1cnc(C)nc1Nc1n[nH]c2cc([C@@H]3C[C@]34C(=O)Nc3ccc(C)cc34)ccc12 [Example 127, (1S,2S)-2-{3-[(5-methoxy-2-methylpyrimidin-4-yl)amino]-1H-indazol-6-yl}-5′-methylspiro[cyclopropane-1,3′-indol]-2′(1′H)-one]
97.2	62	72	COc1cnc(C)nc1Nc1n[nH]c2cc([C@@H]3C[C@@]34C(=O)Nc3ccc(C(F)(F)F)cc34)ccc12 [Example 137, (1R,2S)-2-{3-[(5-methoxy-2-methylpyrimidin-4-yl)amino]-1H-indazol-6-yl}-5′-(trifluoromethyl)spiro[cyclopropane-1,3′-indol]-2′(1′H)-one]
84.7	14.621	40.607	Cc1ncc(OC(F)F)c(Nc2n[nH]c3c(F)c([C@@H]4C[C@@]45C(=O)Nc4ccc(F)cc45)ccc23)n1 [Example 143, (1R,2R)-2-(3-{[5-(difluoromethoxy)-2-methylpyrimidin-4-yl]amino}-7-fluoro-1H-indazol-6-yl)-5′-fluorospiro[cyclopropane-1,3′-indol]-2′(1′H)-one]
73.1	11.1709	11.87	COc1cnc(C)nc1Nc1n[nH]c2cc([C@@H]3C[C@@]34C(=O)N(C)c3ccccc34)ccc12 [Example 122, (1R,2S)-2-{3-[(5-methoxy-2-methylpyrimidin-4-yl)amino]-1H-indezol-6-yl}-1′-methylspiro[cyclopropane-1,3′-indol]-2′(1′H)-one]
53.8	105.7084	40.8516	COc1cnc(C)nc1Nc1n[nH]c2cc([C@@H]3C[C@@]34C(=O)Nc3cc(F)ccc34)ccc12 [Example 131, (1R,2S)-6′-fluoro-2-{3-[(5-methoxy-2-methylpyrimidin-4-yl)amino]-1H-indazol-6-yl}spiro[cyclopropane-1,3′-indol]-2′(1′H)-one]
27.3	70	36	COc1cnc(C)nc1Nc1n[nH]c2cc([C@@H]3C[C@@]34C(=O)Nc3ccc(OC(F)(F)F)cc34)ccc12 [Example 138, (1R,2S)-2-{3-[(5-methoxy-2-methylpyrimidin-4yl)amino]-1H-indazol-6-yl}-5′-(trifluoromethoxy)spiro[cyclopropane-1,3′-indol]-2′(1′H)-one]
19.4	2573.3401	979.4132	COc1ccc2c(c1)[C@]1(C[C@H]1c1ccc3c(Nc4nc(C)ncc4OC(C)C)n[nH]c3c1)C(=O)N2 [Example 136, (1R,2S)-5′-methoxy-2-[3-({2-methyl-5-[(propan-2-yl)oxy]pyrimidin-4-yl}amino)-1H-indazol-6-yl]spiro[cyclopropane-1,3′-indol]-2′(1′H)-one]
13.6	38.03	35.9	COc1cnc(C)nc1Nc1n[nH]c2cc([C@@H]3C[C@@]34C(=O)Nc3ccccc34)ccc12 [Example 124, (1R,2S)-2-{3-[(5-methoxy-2-methylpyrimidin-4-yl)amino]-1H-indazol-6-yl}spiro[cyclopropane-1,3′-indol]-2′(1′H)-one]
13.1	327.4181	891.0891	COc1ccc2c(c1)[C@]1(C[C@H]1c1ccc3c(Nc4nc(C5COC5)ncc4OC(F)F)n[nH]c3c1)C(=O)N2 [Example 141, (1R,2S)-2-(3-{[5-(difluoromethoxy)-2-(oxetan-3-yl)pyrimidin-4-yl]amino}-1H-indazol-6-yl)-5′-methoxyspiro[cyclopropane-1,3′-indol]-2′(1′H)-one]
7.16	502.7949	107.8116	CCc1cnc(C)nc1Nc1n[nH]c2cc([C@@H]3C[C@@]34C(=O)Nc3ccc(OC)cc34)ccc12 [Example 152, (1R,2S)-2-{3-[(5-ethyl-2-methylpyrimidin-4-yl)amino]-1H-indazol-6-yl}-5′-methoxyspiro[cyclopropane-1,3′-indol]-2′(1′H)-one]
